Measurements reported in US20230190935A1, “Blood pathogen inactivation method” (Institute of Blood Transfusion CAMS, priority 2021, published 2023).

Test system: S. aureus
Assay: Pathogen inactivation in plasma spiked with S. aureus: combinations of low-frequency sonication, UV light and riboflavin
Assay type: cell-based
Details: for growth of S. aureus after treatment: n = 6

Cc1cc2nc3c(=O)[nH]c(=O)nc-3n(C[C@H](O)[C@H](O)[C@H](O)CO)c2cc1C [riboflavin]
growth of S. aureus after treatment (Riboflavin-containing sample (50 µmol/L, plasma) + low-frequency sonication 30 KHz, no illumination, table row 0.27 J/mL, 10 min): 5.84 ± 0.18 log
growth of S. aureus after treatment (Riboflavin-containing sample (50 µmol/L, plasma) + low-frequency sonication 30 KHz, no illumination, table row 0.54 J/mL, 20 min): 5.72 ± 0.30 log
growth of S. aureus after treatment (Riboflavin-containing sample (50 µmol/L, plasma) + low-frequency sonication 30 KHz, no illumination, table row 0.81 J/mL, 30 min): 5.67 ± 0.32 log
growth of S. aureus after treatment (Sonication (30 KHz) + UV light (311 ± 50 nm) + riboflavin 50 µmol/L in plasma, light energy 0.27 J/mL, 10 min): 4.48 ± 0.46 log
growth of S. aureus after treatment (Sonication (30 KHz) + UV light (311 ± 50 nm) + riboflavin 50 µmol/L in plasma, light energy 0.54 J/mL, 20 min): 2.04 ± 0.71 log
growth of S. aureus after treatment (Sonication (30 KHz) + UV light (311 ± 50 nm) + riboflavin 50 µmol/L in plasma, light energy 0.81 J/mL, 30 min): 1.28 ± 0.66 log
growth of S. aureus after treatment (UV light (311 ± 50 nm) + riboflavin 50 µmol/L in plasma, no sonication, light energy 0.27 J/mL, 10 min): 5.41 ± 0.029 log
growth of S. aureus after treatment (UV light (311 ± 50 nm) + riboflavin 50 µmol/L in plasma, no sonication, light energy 0.54 J/mL, 20 min): 5.66 ± 0.09 log
growth of S. aureus after treatment (UV light (311 ± 50 nm) + riboflavin 50 µmol/L in plasma, no sonication, light energy 0.81 J/mL, 30 min): 5.23 ± 0.16 log
pathogen inactivation effect (in words) (UV light + riboflavin group, 0.81 J/mL): no inactivation effect
effect of combining low-frequency sonication with riboflavin photochemical method (in words) (low-frequency sonication + UV light + riboflavin): synergistic effect
pathogen inactivation effect (in words) (sonication + UV light + riboflavin group): strong pathogen inactivation effect
pathogen inactivation effect (in words) (sonication + riboflavin group, 0.81 J/mL): no inactivation effect
